The record followed here is the METLIN SMRT retention time set (Domingo-Almenara et al. 2019).

Molecules are shown by their SMILES.

The data set can be described thus: gradient 5% acetonitrile 3 min, to 50% in 2 min, to 85% in 15 min, held 3 min, 100 µL/min. Particulars: column: Zorbax Extend-C18 2.1 x 50 mm; eluents: water / acetonitrile, 0.1% formic acid. A digest of the protocol:
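Each retention time is based on an adduct peak selected computationally and verified by manual inspection. Measurements used HPLC–quadrupole time-of-flight mass spectrometry in positive and negative ionization mode on mixtures of ~100 pure standards. Chromatography ran on a Zorbax Extend-C18 column (2.1 × 50 mm, 1.8 μm) at 100 μL/min with water and acetonitrile, each containing 0.1% formic acid, and dead and dwell volumes of 40 μL and 900 μL.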
As for `CCn1nccc1-c1csc(S(=O)(=O)N2CCCC2)c1`, the RP-LC retention time is 864 s.

`Cc1ccc(C)c(NS(=O)(=O)c2cc(-c3[nH]ncc3C(=O)N(C)C)oc2C)c1` came in with an RP-LC retention time of 700 s.

In turn, `COCC(=O)NC1CCN(c2ccc(C)cc2)C1=O` (stereo not drawn) registered an RP-LC retention time of 666 s.

As for `Cc1cc(C)c(NS(=O)(=O)c2c(C)cc(C)cc2C)c(C)c1`, the RP-LC retention time came out at 1120 s.

For the compound `O=c1ccc(-c2ccc3c(c2)OCO3)nn1CCc1nc(-c2ccccn2)no1`, the RP-LC retention time is 730 s.

Take `CCc1ccccc1S(=O)(=O)N(C)CC1CCOCC1`: the RP-LC retention time turned out to be 902 s.

`CCc1cc(-c2csc(S(=O)(=O)Nc3ccc(C)cc3Br)c2)on1` yielded an RP-LC retention time of 1050 s.

Consider `COc1cccc(NC(=O)Cn2c(=O)n(-c3ccc(F)cc3)c(=O)c3c2cc(C)n3C)c1`, for which the RP-LC retention time amounted to 834 s.

In turn, `C=CC(=O)N1CCCC(n2nc(-c3ccc(Oc4ccccc4)cc3)c3c(N)ncnc32)C1` (stereo not drawn) displayed an RP-LC retention time of 850 s.

Consider `O=C(NCCc1nc2cccnc2n1Cc1ccccc1)Nc1ccc2c(c1)OCO2`, for which the RP-LC retention time was 726 s.

For `CCc1cc(=O)n(CC(=O)Nc2ccccc2C)c(N)n1`, the RP-LC retention time is 639 s.

`CCCC(=O)Nc1cnc(-c2ccccc2)nc1` registered an RP-LC retention time of 815 s.

Turning to `CCc1nc2cc(-c3noc(Cc4cccc(Cl)c4)n3)ccc2o1`, the RP-LC retention time is 1170 s.

Turning to `COC(=O)c1ccc(NC(=O)C2CCN(c3cc(N4CCCCC4)ncn3)CC2)cc1`, the RP-LC retention time came to 715 s.

For the compound `COc1ccc(Nc2nccc(NCCO)n2)cc1`, the RP-LC retention time is 610 s.

The compound `COc1cc(C(=O)N2CCN(c3cc(C)n4c(C)nnc4n3)CC2)cc(OC)c1OC` yielded an RP-LC retention time of 587 s.

Compound `COCCCNC(=O)C1c2ccccc2C(=O)N1Cc1ccc(Cl)cc1` (stereo not drawn) had an RP-LC retention time of 770 s.

`COc1ccc(-c2cc3c4nnc(CCC(=O)N5CCN(c6ccccn6)CC5)n4ccn3n2)cc1` yielded an RP-LC retention time of 605 s.

In turn, `CCn1cc(S(=O)(=O)N2C[C@@H](COC)[C@H](c3ccccn3)C2)cn1` returned an RP-LC retention time of 625 s.

Consider `O=C(COc1cccc2c1CCN(Cc1ccc(F)cc1)C2=O)Nc1ccc2c(c1)OCO2`, for which the RP-LC retention time stood at 846 s.

`Cc1ccc(Cl)cc1N1CCN(c2ncc(S(=O)(=O)c3ccccc3)c(N)n2)CC1` displayed an RP-LC retention time of 1250 s.

Consider `CCOc1ccc(S(=O)(=O)NC2CCN(c3ccc(=O)[nH]n3)C2)cc1` (stereo not drawn), for which the RP-LC retention time worked out at 671 s.

Turning to `O=[N+]([O-])c1ccc(NN=C(c2ccccc2)c2ccccc2)nc1`, the RP-LC retention time is 1300 s.

As for `COc1cc(C)c(C(C)C)cc1S(=O)(=O)Nc1cccc(C)n1`, the RP-LC retention time is 781 s.

Compound `COc1cccc(-c2cc3c(=O)n(CC(O)c4cccc(C#N)c4)ccn3n2)c1` (stereo not drawn) registered an RP-LC retention time of 796 s.

In the case of `COC(=O)c1cc(OCC(=O)NCc2ccc3c(c2)OCO3)c2cc(OC)ccc2n1`, the RP-LC retention time is 749 s.

Compound `CC(C)CC(=O)N1C[C@H](c2nc(-c3cccnc3)no2)[C@@H](C)C1` showed an RP-LC retention time of 751 s.

Take `COc1ccccc1CC(=O)N1CCN(c2ncnc3c2CCC3)CC1`: the RP-LC retention time was 621 s.

Turning to `Cc1noc(C)c1C(=O)N1CC(F)(F)C[C@H]1c1nc(C2CC2)no1`, the RP-LC retention time is 806 s.

Consider `CCN1CCCC1CNC(=O)CCC(=O)N1CCCn2nc(-c3cn(C)c4ccccc34)cc21` (stereo not drawn), for which the RP-LC retention time was 620 s.

In turn, `CN(C)C(=O)c1ccc2c(c1)N(CC(=O)NC1CCCCC1)C(=O)C1CCCCN21` (stereo not drawn) showed an RP-LC retention time of 743 s.

Compound `CC(CCc1ccccc1)NC(=O)c1cc2sccc2n1Cc1ccc(F)cc1` (stereo not drawn) returned an RP-LC retention time of 1190 s.

`O=C(c1ccsc1)N1CC(c2noc(C3CCCN3CC3CC3)n2)C1` (stereo not drawn) showed an RP-LC retention time of 590 s.
